Measured values as given in patent US20230104936A1, “TRPML MODULATORS” (Casma Therapeutics, Inc., priority 2019, published 2023).

Test system: TFEB
Test: TFEB nuclear translocation assay, HeLa wt cells
Format: cell-based
Conditions: Homo sapiens, HeLa, 2 h, 2 hrs compound treatment, Table 1 does not say HeLa wt or TRPML1 KO
Outline: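 HeLa wt cells were treated with compound for 2 hrs at 37° C, then fixed in 4% PFA and immunostained for TFEB with an Alexa 488 secondary and Hoechst nuclear counterstain. Automated epifluorescence imaging at ×20 gave the ratio of nuclear TFEB intensity to a perinuclear ring region, from which AC50 was derived.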

Structure (SMILES) | AC50
COCC1(C)CCN(c2ccccc2NS(=O)(=O)Cc2ccccc2)CC1 [Compound A-532, N-{2-[4-(methoxymethyl)-4-methylpiperidin-1-yl]phenyl}-1-phenylmethanesulfonamide] | ≤ 2 µM
CN(C)S(=O)(=O)c1ccc(S(=O)(=O)n2nc(C3CCN(c4c(F)cccc4F)CC3)c3c2CCNC3)cc1 [Compound A-533, 4-({3-[1-(2,6-difluorophenyl)piperidin-4-yl]-1H,4H,5H,6H,7H-pyrazolo[4,3-c]pyridin-1-yl}sulfonyl)-N,N-dimethylbenzene-1-sulfonamide] | 2.01 to 8 µM
CC(C)(C)C(=O)N1CCN(c2ccccc2NS(=O)(=O)c2ccc3c(c2)CC(Cl)(Cl)C3=O)CC1 [Compound A-534, 2,2-dichloro-N-{2-[4-(2,2-dimethylpropanoyl)piperazin-1-yl]phenyl}-1-oxo-2,3-dihydro-1H-indene-5-sulfonamide] | 2.01 to 8 µM
CC(C)(C)C(=O)N1CCN(c2ccccc2NS(=O)(=O)c2ccc(C(C)(C)C#N)cc2)CC1 [Compound A-535, 4-(1-cyano-1-methylethyl)-N-{2-[4-(2,2-dimethylpropanoyl)piperazin-1-yl]phenyl}benzene-1-sulfonamide] | 2.01 to 8 µM
CC(C)(C)C(=O)N1CCN(c2ccccc2NS(=O)(=O)c2ccc(OC3CCCC3)cc2)CC1 [Compound A-536, 4-(cyclopentyloxy)-N-{2-[4-(2,2-dimethylpropanoyl)piperazin-1-yl]phenyl}benzene-1-sulfonamide] | 8.01 to 9.99 µM
CC(C)(C)C(=O)N1CCN(c2ccccc2NS(=O)(=O)c2ccc(C(F)(F)C(F)(F)F)cc2)CC1 [Compound A-537, N-{2-[4-(2,2-dimethylpropanoyl)piperazin-1-yl]phenyl}-4-(1,1,2,2,2-pentafluoroethyl)benzene-1-sulfonamide] | 8.01 to 9.99 µM
COCC1(C)CCN(c2ccccc2NS(=O)(=O)c2ccc(OC)cc2)CC1 [Compound A-538, 4-methoxy-N-{2-[4-(methoxymethyl)-4-methylpiperidin-1-yl]phenyl}benzene-1-sulfonamide] | ≤ 2 µM
COCC1(C)CCN(c2ccccc2NS(=O)(=O)c2ccc(C)cc2)CC1 [Compound A-539, N-{2-[4-(methoxymethyl)-4-methylpiperidin-1-yl]phenyl}-4-methylbenzene-1-sulfonamide] | ≤ 2 µM
CC(N1CCN(c2ccccc2NS(=O)(=O)c2ccc(S(C)(=O)=O)cc2)CC1)C(F)(F)F (centres unmarked) [Compound A-540, 4-methanesulfonyl-N-{2-[4-(1,1,1-trifluoropropan-2-yl)piperazin-1-yl]phenyl}benzene-1-sulfonamide] | ≤ 2 µM
CC(N1CCN(c2ccccc2NS(=O)(=O)c2ccc(Cl)cc2)CC1)C(F)(F)F (centres unmarked) [Compound A-541, 4-chloro-N-{2-[4-(1,1,1-trifluoropropan-2-yl)piperazin-1-yl]phenyl}benzene-1-sulfonamide] | ≤ 2 µM
CC(N1CCN(c2ccccc2NS(=O)(=O)Cc2ccccc2)CC1)C(F)(F)F (centres unmarked) [Compound A-542, 1-phenyl-N-{2-[4-(1,1,1-trifluoropropan-2-yl)piperazin-1-yl]phenyl}methanesulfonamide] | ≤ 2 µM
CN(C)S(=O)(=O)c1ccc(S(=O)(=O)Nc2ccccc2N2CCC(COC(F)F)CC2)cc1 [Compound A-543, N4-(2-{4-[(difluoromethoxy)methyl]piperidin-1-yl}phenyl)-N1,N1-dimethylbenzene-1,4-disulfonamide] | ≤ 2 µM
C[C@@H]1CN(CC2CCN(c3ccccc3NS(=O)(=O)c3ccc(S(=O)(=O)N(C)C)cc3)CC2)C[C@H](C)O1 [Compound A-544, N4-[2-(4-{[(2R,6S)-2,6-dimethylmorpholin-4-yl]methyl}piperidin-1-yl)phenyl]-N1,N1-dimethylbenzene-1,4-disulfonamide] | ≤ 2 µM
CN(C)S(=O)(=O)c1ccc(S(=O)(=O)Nc2ccccc2N2CCN(C(c3ccccc3)C(F)(F)F)CC2)cc1 (centres unmarked) [Compound A-545, N1,N1-dimethyl-N4-{2-[4-(2,2,2-trifluoro-1-phenylethyl)piperazin-1-yl]phenyl}benzene-1,4-disulfonamide] | ≤ 2 µM
CCC1(OC)CCN(c2ccccc2NS(=O)(=O)c2ccc(S(=O)(=O)N(C)C)cc2)CC1 [Compound A-546, N4-[2-(4-ethyl-4-methoxypiperidin-1-yl)phenyl]-N1,N1-dimethylbenzene-1,4-disulfonamide] | ≤ 2 µM
CN(C)S(=O)(=O)c1ccc(S(=O)(=O)Nc2ccccc2N2CCC(CCCN3CCOCC3)CC2)cc1 [Compound A-547, N1,N1-dimethyl-N4-(2-{4-[3-(morpholin-4-yl)propyl]piperidin-1-yl}phenyl)benzene-1,4-disulfonamide] | ≤ 2 µM
CN(C)S(=O)(=O)c1ccc(S(=O)(=O)Nc2ccccc2N2CCC(C3CCOCC3)CC2)cc1 [Compound A-548, N1,N1-dimethyl-N4-{2-[4-(oxan-4-yl)piperidin-1-yl]phenyl}benzene-1,4-disulfonamide] | ≤ 2 µM
CCN(CC)CC1CCN(c2ccccc2NS(=O)(=O)c2ccc(S(=O)(=O)N(C)C)cc2)CC1 [Compound A-549, N4-(2-{4-[(diethylamino)methyl]piperidin-1-yl}phenyl)-N1,N1-dimethylbenzene-1,4-disulfonamide] | 2.01 to 8 µM

Structure (SMILES) | AC50
CN(C)S(=O)(=O)c1ccc(S(=O)(=O)Nc2ccccc2N2CCC(C(F)(F)F)CC2)cc1 [Compound A-550, N1,N1-dimethyl-N4-{2-[4-(trifluoromethyl)piperidin-1-yl]phenyl}benzene-1,4-disulfonamide] | ≤ 2 µM
CN(C)S(=O)(=O)c1ccc(S(=O)(=O)Nc2ccccc2N2CCN(CC(F)(F)C(F)F)CC2)cc1 [Compound A-551, N1,N1-dimethyl-N4-{2-[4-(2,2,3,3-tetrafluoropropyl)piperazin-1-yl]phenyl}benzene-1,4-disulfonamide] | ≤ 2 µM
CN(C)S(=O)(=O)c1ccc(S(=O)(=O)Nc2ccccc2N2CCN(CC(F)F)CC2)cc1 [Compound A-552, N4-{2-[4-(2,2-difluoroethyl)piperazin-1-yl]phenyl}-N1,N1-dimethylbenzene-1,4-disulfonamide] | ≤ 2 µM
COCCN1CCN(c2ccccc2NS(=O)(=O)c2ccc(S(=O)(=O)N(C)C)cc2)CC1 [Compound A-553, N4-{2-[4-(2-methoxyethyl)piperazin-1-yl]phenyl}-N1,N1-dimethylbenzene-1,4-disulfonamide] | 2.01 to 8 µM
CN(C)S(=O)(=O)c1ccc(S(=O)(=O)Nc2ccccc2N2CCC(CN3CCOCC3)CC2)cc1 [Compound A-554, N1,N1-dimethyl-N4-(2-{4-[(morpholin-4-yl)methyl]piperidin-1-yl}phenyl)benzene-1,4-disulfonamide] | ≤ 2 µM
COCC1(C)CCN(c2ccccc2NS(=O)(=O)c2ccc(OCC3CC3)cc2)CC1 [Compound A-555, 4-(cyclopropylmethoxy)-N-{2-[4-(methoxymethyl)-4-methylpiperidin-1-yl]phenyl}benzene-1-sulfonamide] | 2.01 to 8 µM
CC(c1ccccc1N1CCN(C(=O)OCc2ccccc2)CC1)S(=O)(=O)c1ccc(S(=O)(=O)N(C)C)cc1 (centres unmarked) [Compound A-556, benzyl 4-(2-{1-[4-(dimethylsulfamoyl)benzenesulfonyl]ethyl}phenyl)piperazine-1-carboxylate] | ≤ 2 µM
CC(O)C1(C)CCN(c2ccccc2NS(=O)(=O)c2ccc(S(=O)(=O)N(C)C)cc2)CC1 (centres unmarked) [Compound A-557, N1-(2-(4-(1-hydroxyethyl)-4-methylpiperidin-1-yl)phenyl)-N4,N4-dimethylbenzene-1,4-disulfonamide] | 2.01 to 8 µM
CN(C)S(=O)(=O)c1ccc(S(=O)(=O)Nc2ccccc2N2CCC(C)(C3(O)CC3)CC2)cc1 [Compound A-558, N1-(2-(4-(1-hydroxycyclopropyl)-4-methylpiperidin-1-yl)phenyl)-N4,N4-dimethylbenzene-1,4-disulfonamide] | 2.01 to 8 µM
CN(C)S(=O)(=O)c1ccc(S(=O)(=O)Nc2ccccc2N2CCN(CCF)CC2)cc1 [Compound A-559, N4-{2-[4-(2-fluoroethyl)piperazin-1-yl]phenyl}-N1,N1-dimethylbenzene-1,4-disulfonamide] | 2.01 to 8 µM
CN(C)S(=O)(=O)c1ccc(S(=O)(=O)Nc2ccccc2N2CCN(CC(F)(F)F)CC2)cc1 [Compound A-560, N1,N1-dimethyl-N4-{2-[4-(2,2,2-trifluoroethyl)piperazin-1-yl]phenyl}benzene-1,4-disulfonamide] | ≤ 2 µM
Cc1ccc(S(=O)(=O)n2cc3c(N4CCN(C5CCCCC5)CC4)cccc3n2)cc1 [Compound A-561] | 2.01 to 8 µM
CN(C)S(=O)(=O)c1ccc(S(=O)(=O)Nc2ccccc2N2CCC3(CCCCO3)CC2)cc1 [Compound A-562, N1,N1-dimethyl-N4-(2-{1-oxa-9-azaspiro[5.5]undecan-9-yl}phenyl)benzene-1,4-disulfonamide] | ≤ 2 µM
COc1ccc(Cl)cc1CS(=O)(=O)Nc1ccccc1N1CCN(C(=O)C(C)(C)C)CC1 [Compound A-563, 1-(5-chloro-2-methoxyphenyl)-N-{2-[4-(2,2-dimethylpropanoyl)piperazin-1-yl]phenyl}methanesulfonamide] | ≥ 10 µM
CC(C)(C)C(=O)N1CCN(c2ccccc2NS(=O)(=O)C2(c3ccccc3)CC2)CC1 [Compound A-564, N-{2-[4-(2,2-dimethylpropanoyl)piperazin-1-yl]phenyl}-1-phenylcyclopropane-1-sulfonamide] | ≤ 2 µM
CC(C)(C)C(=O)N1CCN(c2ccccc2NS(=O)(=O)Cc2cccc3cccnc23)CC1 [Compound A-565, N-{2-[4-(2,2-dimethylpropanoyl)piperazin-1-yl]phenyl}-1-(quinolin-8-yl)methanesulfonamide] | 8.01 to 9.99 µM
CC(C)(C)C(=O)N1CCN(c2ccccc2NS(=O)(=O)Cc2ccc3ccccc3c2)CC1 [Compound A-566, N-{2-[4-(2,2-dimethylpropanoyl)piperazin-1-yl]phenyl}-1-(naphthalen-2-yl)methanesulfonamide] | 2.01 to 8 µM
